The values below come from ChEMBL document CHEMBL1149654, “Caprolactams as potent CGRP receptor antagonists for the treatment of migraine” (Bioorg Med Chem Lett, 2007).

A short description of series [1]: Bioavailability in rat at 10 mg/kg, po. Format: ADME, organism-based. The conditions noted are these: in vivo.
The target of series [2] is T1, Calcitonin-gene-related peptide receptor, CALCRL/RAMP1 (Homo sapiens, UniProt O60894+Q16602). Put plainly: Displacement of [125I]CGRP from human CL receptor in RAMP1 membranes. The series is classed as cell membranes. (Displacement assays read how much labelled ligand stays bound in the presence of the test substance.)
A short description of series [3]: Clearance in rat at 10 mg/kg, po. On the set-up: dose 10 mg/kg, route oral. The series is classed as ADME, organism-based. The settings on record: in vivo.
Series [4] concerns the target T1, Calcitonin-gene-related peptide receptor, CALCRL/RAMP1. Description: Antagonist activity at human CGRP receptor in E10 cells assessed as inhibition of cAMP production. The series is classed as functional, cell-based. On the technique in general: cAMP levels reflect the balance of adenylyl cyclase and phosphodiesterase activity.
Series [5] has the same target. Put plainly: Displacement of [125I]CGRP from human CL receptor in RAMP1 membranes at 100 uM. Format: cell membranes.

T1 sequence (O60894 whole entry): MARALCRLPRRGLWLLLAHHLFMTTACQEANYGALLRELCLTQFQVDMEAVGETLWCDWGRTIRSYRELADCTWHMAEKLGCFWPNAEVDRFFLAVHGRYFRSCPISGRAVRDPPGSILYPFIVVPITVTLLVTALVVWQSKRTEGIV
T1 sequence (Q16602 whole entry): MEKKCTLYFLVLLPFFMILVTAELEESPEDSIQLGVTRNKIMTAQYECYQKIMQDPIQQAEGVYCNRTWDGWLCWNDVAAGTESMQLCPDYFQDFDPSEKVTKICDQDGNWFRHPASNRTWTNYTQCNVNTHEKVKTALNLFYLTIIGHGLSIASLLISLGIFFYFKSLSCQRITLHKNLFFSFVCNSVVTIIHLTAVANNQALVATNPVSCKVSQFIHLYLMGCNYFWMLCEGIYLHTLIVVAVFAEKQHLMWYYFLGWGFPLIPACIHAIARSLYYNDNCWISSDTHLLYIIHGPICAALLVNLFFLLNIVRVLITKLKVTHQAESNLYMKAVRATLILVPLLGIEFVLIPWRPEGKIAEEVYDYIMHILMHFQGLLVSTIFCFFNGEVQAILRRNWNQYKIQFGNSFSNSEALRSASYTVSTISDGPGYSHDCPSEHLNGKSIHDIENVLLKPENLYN

In general, bioavailability refers to dose-corrected exposure relative to a reference, in per cent. Low values mean poor availability, high ones good availability. One may read the Ki as a dissociation constant, usually derived from enzyme kinetics or from competition with a known ligand. One may read the CL/F as clearance divided by bioavailability, as obtained after extravascular dosing. For orientation: IC50 means the concentration that inhibits the measured activity by half. As to `O=C(N[C@@H]1CC[C@@H](c2ccccc2)CN(CC2CC2)C1=O)N1CCC(n2cc(-c3ccccc3)[nH]c2=O)CC1`, the bioavailability in series [1] is 27%. For the same compound, the Ki in series [2] was 2 nM. The CL/F in series [3] was determined as 36 mL/min/kg. Moreover, the IC50 in series [4] was 4 nM.

For `O=C(N[C@@H]1CC[C@@H](c2ccccc2)CN(CC2CC2)C1=O)N1CCC(N2Cc3ccccc3NC2=O)CC1`, the Ki in series [2] is 25 nM. Besides, the IC50 in series [4] was 36 nM.

With `O=C(NC1CC(c2ccccc2)CCN(CC2CC2)C1=O)N1CCC(n2nc(-c3ccccc3)[nH]c2=O)CC1` (racemic; 28), the Ki in series [2] is 266 nM. The IC50 in series [4] was 488 nM.

Regarding `O=C(NC1CCC(c2ccccc2)CN(CC2CC2)C1=O)N1CCC(N2Cc3ccccc3NC2=O)CC1` (racemic; 17), the inhibition constant Ki in series [2] was 695 nM. In addition, the IC50 in series [4] was 778 nM.

For the compound `CC(C)(C)OC(=O)CN1C(=O)[C@@H](NC(=O)N2CCC(N3Cc4ccccc4NC3=O)CC2)CCC[C@H]1c1ccccc1`, in series [2], the Ki was greater than 10000 nM. In addition, in series [4], the IC50 is 471 nM.

In the case of `CC(C)N1C(=O)C(NC(=O)N2CCC(N3Cc4ccccc4NC3=O)CC2)CCc2ccccc21` (configuration not stated), the Ki in series [2] is 3700 nM. Moreover, in series [4], the IC50 is 3100 nM.

For `CC(C)(C)OC(=O)CN1C(=O)C(NC(=O)N2CCC(N3Cc4ccccc4NC3=O)CC2)CCCC1c1ccccc1` (racemic; 13), the Ki in series [2] is 1990 nM. Moreover, in series [4], the IC50 was 2120 nM.

`O=C(N[C@@H]1CC[C@@H](c2ccccc2)CN(CC2CC2)C1=O)N1CCC(n2nc(-c3ccccc3)[nH]c2=O)CC1`: the Ki in series [2] is 29 nM. Moreover, in series [4], the IC50 is 45 nM.

Consider `O=C(N[C@@H]1CC[C@@H](c2ccccc2)CN(CC2CC2)C1=O)N1CCC(N2CCc3ccccc3NC2=O)CC1`, for which the Ki in series [2] was 29 nM. In series [4], the IC50 was 32 nM.

In the case of `O=C(NC1CCC(c2ccccc2)CN(CC2CC2)C1=O)N1CCC(N2Cc3ccccc3NC2=O)CC1` (racemic; 18), in series [2], the Ki is 31 nM. The IC50 in series [4] was 54 nM.

As to `CC(C)(C)OC(=O)CN1C(=O)[C@H](NC(=O)N2CCC(N3Cc4ccccc4NC3=O)CC2)CCC[C@@H]1c1ccccc1`, the Ki in series [2] was 934 nM.

Consider `O=C(N[C@H]1CCCCN(Cc2ccccc2)C1=O)N1CCC(N2Cc3ccccc3NC2=O)CC1`, for which the Ki in series [2] was 11100 nM.

Take `CC(C)N1C(=O)[C@H](NC(=O)N2CCC(N3Cc4ccccc4NC3=O)CC2)N=C(c2ccccc2)c2ccccc21`: the Ki in series [2] is 55 nM. The IC50 in series [4] was 65 nM.

Turning to `O=C(NC1CC(c2ccccc2)CCN(CC2CC2)C1=O)N1CCC(n2cc(-c3ccccc3)[nH]c2=O)CC1` (racemic; 29), the Ki in series [2] was 35 nM. In series [4], the IC50 is 133 nM.

As to `O=C(N[C@@H]1CCCCN(Cc2ccccc2)C1=O)N1CCC(N2Cc3ccccc3NC2=O)CC1`, the inhibition constant Ki in series [2] is 1800 nM.

As for `O=C(NC1CC(c2ccccc2)CCN(CC2CC2)C1=O)N1CCC(n2cc(-c3ccccc3)[nH]c2=O)CC1` (racemic; 30), in series [2], the Ki was 17 nM. Besides, the IC50 in series [4] is 141 nM.

On to `O=C(N[C@@H]1CCC[C@H](c2ccccc2)N(CC2CC2)C1=O)N1CCC(N2Cc3ccccc3NC2=O)CC1`, for which the Ki in series [2] is 689 nM. The IC50 in series [4] was 408 nM.

Consider `O=C(NC1CC(c2ccccc2)CCN(CC2CC2)C1=O)N1CCC(n2nc(-c3ccccc3)[nH]c2=O)CC1` (racemic; 27), for which, in series [2], the Ki was 544 nM. The IC50 in series [4] was 3820 nM.

`O=C(N[C@@H]1CCCCN(CC2CC2)C1=O)N1CCC(N2Cc3ccccc3NC2=O)CC1`: the Ki in series [2] was 7800 nM. Besides, in series [4], the 50% inhibitory concentration (IC50) is 2400 nM.

Take `O=C(N[C@H]1CC[C@H](c2ccccc2)CN(CC2CC2)C1=O)N1CCC(N2Cc3ccccc3NC2=O)CC1`: the Ki in series [2] is 5830 nM. Further, the IC50 in series [4] was 6630 nM.

Regarding `CC(C)(C)OC(=O)CN1C(=O)C(NC(=O)N2CCC(N3Cc4ccccc4NC3=O)CC2)CCCC1c1ccccc1` (racemic; 12), the Ki in series [2] was 17000 nM.

Regarding `O=C(N[C@@H]1CCCN(Cc2ccccc2)C1=O)N1CCC(N2Cc3ccccc3NC2=O)CC1`, the Activity in series [5] is 46%.

For the compound `O=C(N[C@@H]1CCN(Cc2ccccc2)C1=O)N1CCC(N2Cc3ccccc3NC2=O)CC1`, the Activity in series [5] was 63%.
